# US5668133A, “Ophthalmic compositions comprising emedastine and methods for their use” (priority 1995, dated 1997)
# Key:
# [1] = system: histamine-induced vascular permeability in guinea pig conjunctiva; assay: histamine-induced vascular permeability in guinea pig conjunctiva, topical ocular pretreatment; format: in vivo, guinea pig (Male Dunkin Hartley); conditions: for Wheal Area × Intensity: 1 min pretreatment
# Procedure: The topical ocular antihistaminic effect of emedastine difumarate was assessed in a model of histamine induced vascular permeability in guinea pig conjunctiva. The potency of emedastine difumarate in this model was then compared with those of reference antihistamines.
# Male Dunkin Hartley Viral Antibody Free outbred guinea pigs (Charles River Labs, Portage, Mich.), weighing approximately 250-350 grams (6/group) were injected intravenously (i.v.) via the marginal ear vein with 1.0 mL of Evans Blue dye (1.0 mg/mL). Forty-five (45) minutes post dye injection, 20 μL of test compound or saline vehicle was applied topically to one eye of each experimental animal. […] Responses were quantitated as described by Yanni et al. in Int. Arch. Allergy Immunol., 101:102-106 (1993). Response scores from the treated groups were then compared with scores obtained in the saline-treated group using Dunnett's t test (Dunnett C. W., "A multiple comparison procedure for comparing treatments with a control." J. Am. Stat. Assoc. 50:1096-1121(1955)). Regression analysis was used to determine relative potency (Bliss, C. and E. Gjorgy. In Vitamin Methods, Vol. 2, pp. 445-610, Academic Press, Inc., New York, 1951.).
# [2] = system: passive anaphylaxis in guinea pig conjunctiva; assay: passive conjunctival anaphylaxis, topical ocular antigen challenge, clinical scoring; format: in vivo
# Procedure: Emedastine difumarate was evaluated for its ability to inhibit a passive conjunctival immediate hypersensitivity response following topical ocular administration.
# Guinea pigs (5-8/group) were passively sensitized with anti-ovalbumin serum injected subconjunctivally in one eye. Twenty-four hours after passive sensitization, ovalbumin (OA) was administered either i.v. or topically to the eye.
# For assessment of the allergic response following topical ocular antigen challenge, 20 μL of ovalbumin (1.0 wt %) was administered to the sensitized eye 5 minutes after topical ocular application of emedastine difumarate or saline (20 μL). Thirty minutes later, the reaction was quantitated, using the following scoring scheme (maximum score per animal=10):
# Congestion (refers to palpebral and bulbar conjunctiva):
# 3--Dark red conjunctiva; petechiae present
# 1--Any swelling on lower lid only
# 2--Swelling upper and lower lid, lids partially closed
# 3--Lids everted, very swollen, lids at least half closed
# 4--Swelling of both lids and side of face
# 1--Glazed, glassy appearance
# 2--Moist lids and surrounding hair
# 3--Moist lids and surrounding hair, thicker mucous-like
# [3] = topically 1 minute before histamine challenge
# [4] = topical ocular antigen challenge, 5 min before challenge
smiles,measurement,setting,value
"CCOCCn1c(N2CCCN(C)CC2)nc2ccccc21 [Emedastine Difumarate, 1-(2-ethoxyethyl)-2-(4-methyl-1-homopiperazinyl)-benzimidazole]",Wheal Area × Intensity,"[1]; 0.0001 wt %, antazoline experiment (NaCl 285 ± 19)",159 ± 31
same,Wheal Area × Intensity,"[1]; 0.0001 wt %, ketotifen/pheniramine experiment (NaCl 276 ± 10)",159 ± 26
same,Wheal Area × Intensity,"[1]; 0.0001 wt %, pyrilamine experiment (NaCl 308 ± 20)",166 ± 14
same,Wheal Area × Intensity,"[1]; 0.001 wt %, antazoline experiment (NaCl 285 ± 19)",109 ± 14
same,Wheal Area × Intensity,"[1]; 0.001 wt %, ketotifen/pheniramine experiment (NaCl 276 ± 10)",141 ± 38
same,Wheal Area × Intensity,"[1]; 0.001 wt %, pyrilamine experiment (NaCl 308 ± 20)",104 ± 20
same,Wheal Area × Intensity,"[1]; 0.01 wt %, antazoline experiment (NaCl 285 ± 19)",55 ± 12
same,Wheal Area × Intensity,"[1]; 0.01 wt %, ketotifen/pheniramine experiment (NaCl 276 ± 10)",45 ± 18
same,Wheal Area × Intensity,"[1]; 0.01 wt %, levocabastine experiment (NaCl 336 ± 78)",26 ± 27
same,Wheal Area × Intensity,"[1]; 0.01 wt %, pyrilamine experiment (NaCl 308 ± 20)",57 ± 16
same,ED50 (text),[1]; 1 minute prior to histamine challenge,0.0002%
same,inhibition of the vascular permeability response,"[1]; 1 minute, 30 minutes, 2, 4 or 8 hours prior to challenge",inhibited in concentration-dependent fashion
same,Wheal Area × Intensity (X ± S.D.),"[1]; 30 min pretreatment, 0.000001 wt %, clemastine experiment (NaCl 350 ± 31)",265 ± 35
same,Wheal Area × Intensity (X ± S.D.),"[1]; 30 min pretreatment, 0.000006 wt %, ketotifen experiment (NaCl 214 ± 41)",154 ± 62
same,Wheal Area × Intensity (X ± S.D.),"[1]; 30 min pretreatment, 0.000006 wt %, pyrilamine experiment (NaCl 194 ± 41)",136 ± 42
same,Wheal Area × Intensity (X ± S.D.),"[1]; 30 min pretreatment, 0.00001 wt %, antazoline experiment (NaCl 287 ± 20)",197 ± 57
same,Wheal Area × Intensity (X ± S.D.),"[1]; 30 min pretreatment, 0.00001 wt %, brompheniramine experiment (NaCl 219 ± 20)",191 ± 48
same,Wheal Area × Intensity (X ± S.D.),"[1]; 30 min pretreatment, 0.00001 wt %, chlorpheniramine experiment (NaCl 217 ± 35)",161 ± 68
same,Wheal Area × Intensity (X ± S.D.),"[1]; 30 min pretreatment, 0.00001 wt %, clemastine experiment (NaCl 350 ± 31)",165 ± 30
same,Wheal Area × Intensity (X ± S.D.),"[1]; 30 min pretreatment, 0.00001 wt %, diphenhydramine experiment (NaCl 214 ± 34)",163 ± 32
same,Wheal Area × Intensity (X ± S.D.),"[1]; 30 min pretreatment, 0.00001 wt %, levocabastine/pheniramine experiment (NaCl 252 ± 30)",191 ± 27
same,Wheal Area × Intensity (X ± S.D.),"[1]; 30 min pretreatment, 0.00006 wt %, ketotifen experiment (NaCl 214 ± 41)",91 ± 26
same,Wheal Area × Intensity (X ± S.D.),"[1]; 30 min pretreatment, 0.00006 wt %, pyrilamine experiment (NaCl 194 ± 41)",75 ± 22
same,Wheal Area × Intensity (X ± S.D.),"[1]; 30 min pretreatment, 0.0001 wt %, antazoline experiment (NaCl 287 ± 20)",65 ± 32
same,Wheal Area × Intensity (X ± S.D.),"[1]; 30 min pretreatment, 0.0001 wt %, brompheniramine experiment (NaCl 219 ± 20)",104 ± 47
same,Wheal Area × Intensity (X ± S.D.),"[1]; 30 min pretreatment, 0.0001 wt %, chlorpheniramine experiment (NaCl 217 ± 35)",112 ± 58
same,Wheal Area × Intensity (X ± S.D.),"[1]; 30 min pretreatment, 0.0001 wt %, clemastine experiment (NaCl 350 ± 31)",70 ± 27
same,Wheal Area × Intensity (X ± S.D.),"[1]; 30 min pretreatment, 0.0001 wt %, diphenhydramine experiment (NaCl 214 ± 34)",98 ± 22
same,Wheal Area × Intensity (X ± S.D.),"[1]; 30 min pretreatment, 0.0001 wt %, levocabastine/pheniramine experiment (NaCl 252 ± 30)",137 ± 24
same,Wheal Area × Intensity (X ± S.D.),"[1]; 30 min pretreatment, 0.0006 wt %, ketotifen experiment (NaCl 214 ± 41)",16 ± 14
same,Wheal Area × Intensity (X ± S.D.),"[1]; 30 min pretreatment, 0.0006 wt %, pyrilamine experiment (NaCl 194 ± 41)",6 ± 7
same,Wheal Area × Intensity (X ± S.D.),"[1]; 30 min pretreatment, 0.001 wt %, antazoline experiment (NaCl 287 ± 20)",4 ± 4
same,Wheal Area × Intensity (X ± S.D.),"[1]; 30 min pretreatment, 0.001 wt %, brompheniramine experiment (NaCl 219 ± 20)",8 ± 9
same,Wheal Area × Intensity (X ± S.D.),"[1]; 30 min pretreatment, 0.001 wt %, chlorpheniramine experiment (NaCl 217 ± 35)",18 ± 23
same,Wheal Area × Intensity (X ± S.D.),"[1]; 30 min pretreatment, 0.001 wt %, clemastine experiment (NaCl 350 ± 31)",6 ± 7
same,Wheal Area × Intensity (X ± S.D.),"[1]; 30 min pretreatment, 0.001 wt %, diphenhydramine experiment (NaCl 214 ± 34)",12 ± 19
same,Wheal Area × Intensity (X ± S.D.),"[1]; 30 min pretreatment, 0.001 wt %, levocabastine/pheniramine experiment (NaCl 252 ± 30)",7 ± 9
same,Potency,"[1]; 30 min pretreatment, relative to emedastine difumarate = 1.0, (95% Confidence limits)",1.0
same,potency compared to ketotifen,[1]; 30 minute treatment interval,equipotent
same,times more potent than brompheniramine,[1]; 30 minute treatment interval,7 times
same,times more potent than chlorpheniramine,[1]; 30 minute treatment interval,7 times
same,times more potent than clemastine,[1]; 30 minute treatment interval,10 times
same,times more potent than diphenhydramine,[1]; 30 minute treatment interval,3333 times
same,times more potent than levocabastine,[1]; 30 minute treatment interval,100 times
same,times more potent than pyrilamine,[1]; 30 minute treatment interval,10 times
same,times more potent than pheniramine,"[1]; 30 minute treatment interval, approximate, lack of parallelism",approximately 357 times
same,ED50 (text),[1]; 30 minutes prior to histamine challenge,0.000035%
same,ED50 (text),[1]; 2 hours prior to histamine challenge,0.0029%
same,ED50 (text),[1]; 4 hours prior to histamine challenge,0.019%
same,ED50 (text),[1]; 8 hours prior to histamine challenge,0.19%
same,ED50,[1]; pretreatment 1 min,0.0002 wt %
same,Percent Change,"[1]; pretreatment 1 min, 0.0001 wt %",-44%
same,Percent Change,"[1]; pretreatment 1 min, 0.001 wt %",-62%
same,Percent Change,"[1]; pretreatment 1 min, 0.01 wt %",-81%
same,ED50,[1]; pretreatment 30 min,0.000035 wt %
same,Percent Change,"[1]; pretreatment 30 min, 0.000006 wt %",-28%
same,Percent Change,"[1]; pretreatment 30 min, 0.00006 wt %",-58%
same,Percent Change,"[1]; pretreatment 30 min, 0.0006 wt %",-93%
same,ED50,[1]; pretreatment 2 hr,0.0029 wt %
same,Percent Change,"[1]; pretreatment 2 hr, 0.001 wt %",-35%
same,Percent Change,"[1]; pretreatment 2 hr, 0.005 wt %",-53%
same,Percent Change,"[1]; pretreatment 2 hr, 0.01 wt %",-72%
same,ED50,[1]; pretreatment 4 hr,0.019 wt %
same,Percent Change,"[1]; pretreatment 4 hr, 0.001 wt % (first line)",-9%
same,Percent Change,"[1]; pretreatment 4 hr, 0.1 wt %",-84%
same,Percent Change,"[1]; pretreatment 4 hr, 1.0 wt %",-95%
same,ED50,[1]; pretreatment 8 hr,0.19 wt %
same,Percent Change,"[1]; pretreatment 8 hr, 0.01 wt %",-5%
same,Percent Change,"[1]; pretreatment 8 hr, 0.05 wt %",-33%
same,Percent Change,"[1]; pretreatment 8 hr, 0.1 wt %",-43%
same,Percent Change,"[1]; pretreatment 8 hr, 0.5 wt %",-66%
same,Percent Change,"[1]; pretreatment 8 hr, 1.0 wt %",-71%
same,onset and duration of action,[1]; topical ocular administration,rapid onset and an acceptable duration of action
same,times more potent than antazoline,"[1]; topical, 0.5 h",~5813 times
same,potency compared to pyrilamine,[1]; [3],approximately equipotent
same,times more potent than antazoline,[1]; [3],17 times
same,times more potent than ketotifen,[1]; [3],3 times
same,times more potent than pheniramine,[1]; [3],8 times
same,reduction in severity of the hypersensitivity response,[2]; 5 minutes before topical ocular antigen challenge,concentration-dependent reductions in the severity of the hypersensitivity response
same,attenuation of the hypersensitivity response,[2]; concentrations ranging from 0.0001% to 0.1%,Significant attenuation
same,% Change,"[2]; topical ocular antigen challenge, 0.0001 wt %, 5 min before challenge",-29%
same,% Change,"[2]; topical ocular antigen challenge, 0.001 wt %, 5 min before challenge",-45%
same,% Change,"[2]; topical ocular antigen challenge, 0.01 wt %, 5 min before challenge",-51%
same,% Change,"[2]; topical ocular antigen challenge, 0.1 wt %, 5 min before challenge",-67%
same,ED50,[2]; [4],0.0046 wt %
same,ED50 (text),[2]; [4],0.0046%
